{"source": "patent US20090246292A1", "about": "“ANTIMICROBIAL FORMULATIONS COMPRISING A QUINONE AND A COPPER SALT” (priority 2006, published 2009)", "key": {"[1]": {"tested_on": "P. acnes NCTC 737", "test": "Minimum inhibitory concentration (MIC) assay", "format": "cell-based, Propionibacterium acnes", "source_text": "(a) Minimum Inhibitory Concentration (MIC) Assay\nThe culture media were as described above.\nThe assays included both negative (culture medium with no micro-organisms) and positive (culture medium plus diluting solvent plus micro-organism) controls."}, "[2]": {"tested_on": "P. granulosum NCTC 11865", "test": "Disc diffusion assay (DDA), also supplemented", "format": "cell-based", "conditions": "200 μg per disc", "description": "(§1) The propionibacteria were cultured and maintained on Wilkins-Chalgren Anaerobe Medium (agar and broth) at pH 6.0; all cultures were incubated anaerobically at 37° C. for 72 hours.\n(§2) A sterile paper disc was impregnated with a sample of the test compound in a suitable solvent and 30 minutes allowed for the solvents to evaporate (where possible). The disc was then placed on an agar plate onto which the test micro-organism had been inoculated. The plate was then incubated under the conditions described above, following which it was examined visually for signs of bacterial growth. […] The diameter of this zone of “inhibition” was measured using a ProtoCOL™ automated zone sizer (Synbiosis, Cambridge, UK).\n(§3) For assays using Propionibacterium spp. strains the supplements used in the examples below were lipid (either Tween™ 80 or triolein, both at 1% v/v) and sodium chloride (100 mM)."}, "[3]": {"tested_on": "P. granulosum PRP-006", "test": "Disc diffusion assay (DDA), also supplemented", "format": "cell-based", "conditions": "200 μg per disc", "description": "as §1, §2, §3"}, "[4]": {"tested_on": "P. acnes NCTC 737", "test": "Synergy disc diffusion assay (SDDA), also supplemented", "description": "as §1\n(e) Synergy Disc Diffusion Assay (SDDA)\nThis is a variation on the DDA method, in which two compounds are tested together for their combined antimicrobial activity.\nTwo test compounds A and B were placed on a single paper disc and the above described DDA procedure repeated.\n(f) Supplemented Disc Diffusion Assays\nas §3"}}}
{"smiles": "O.O.O.O.O.O=S(=O)([O-])[O-].[Cu+2]", "note": "[Copper (II) sulphate pentahydrate]", "values": [{"measurement": "MIC", "setting": "[1]", "result": 15.6, "unit": "µg/mL"}, {"measurement": "MIC/MBC ratio", "setting": "[1]", "result": 0.125}, {"measurement": "DDA + salt", "setting": "[2]", "result": 48.34, "unit": "mm"}, {"measurement": "DDA + lipid", "setting": "[2]; 1% (v/v) triolein", "result": 41.65, "unit": "mm"}, {"measurement": "DDA", "setting": "[2]; single replicate", "result": 48.34, "unit": "mm"}, {"measurement": "DDA", "setting": "[2]; Table 12 series", "result": 53.32, "unit": "mm"}, {"measurement": "DDA + salt", "setting": "[3]", "result": 37.09, "unit": "mm"}, {"measurement": "DDA + lipid", "setting": "[3]; 1% (v/v) triolein", "result": 30.71, "unit": "mm"}, {"measurement": "DDA", "setting": "[3]; single replicate", "result": 31.62, "unit": "mm"}, {"measurement": "DDA", "setting": "[3]; Table 12 series", "result": 27.91, "unit": "mm"}, {"measurement": "SDDA area increase", "setting": "[4]", "result": 108.63, "unit": "%"}, {"measurement": "SDDA increase", "setting": "[4]", "result": 22.11, "unit": "mm"}, {"measurement": "SDDA with TBHQ", "setting": "[4]", "result": 71.86, "unit": "mm"}, {"measurement": "SL SDDA area increase", "setting": "[4]", "result": 64.85, "unit": "%"}, {"measurement": "SL SDDA increase", "setting": "[4]", "result": 14.18, "unit": "mm"}, {"measurement": "SL SDDA with TBHQ", "setting": "[4]", "result": 64.14, "unit": "mm"}]}
